ChEMBL document CHEMBL1124342, “N6-bicycloalkyladenosines with unusually high potency and selectivity for the adenosine A1 receptor” (J Med Chem, 1989)

The compounds below were run against T1, Adenosine receptor A1 (Rattus norvegicus, UniProt P25099) (assay: Binding affinity against Adenosine A1 receptor using [3H]CHA in rat brain membranes).
T1 sequence (P25099 whole entry): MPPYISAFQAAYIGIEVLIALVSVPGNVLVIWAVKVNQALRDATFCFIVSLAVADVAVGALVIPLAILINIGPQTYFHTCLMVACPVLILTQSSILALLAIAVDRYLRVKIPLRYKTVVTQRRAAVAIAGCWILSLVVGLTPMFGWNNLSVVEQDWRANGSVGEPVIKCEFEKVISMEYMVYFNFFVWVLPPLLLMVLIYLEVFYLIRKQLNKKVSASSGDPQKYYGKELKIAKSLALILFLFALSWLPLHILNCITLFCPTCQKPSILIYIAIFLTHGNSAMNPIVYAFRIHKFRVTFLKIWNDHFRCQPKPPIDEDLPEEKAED
Assay type: cell membranes

SMILES | Ki [nM]
OC[C@H]1O[C@@H](n2cnc3c(N[C@@H]4C[C@@H]5CC[C@H]4C5)ncnc32)[C@H](O)[C@@H]1O | 1.65
OC[C@H]1O[C@@H](n2cnc3c(NC4CC5CCC4C5)ncnc32)[C@H](O)[C@@H]1O (some centres undefined) | 0.42
OC[C@H]1O[C@@H](n2cnc3c(N[C@H]4CC5CCC4C5)ncnc32)[C@H](O)[C@@H]1O (single isomer, unassigned) | 0.3
O[C@@H]1[C@H](O)[C@@H](CCl)O[C@H]1n1cnc2c(NC3CCCC3)ncnc21 | 0.72
OC[C@H]1O[C@@H](n2cnc3c(NC4C[C@H]5CC[C@@H]4C5)ncnc32)[C@H](O)[C@@H]1O (some centres undefined) | 0.91

These compounds were tested against Adenosine A2 receptor (Rattus norvegicus, UniProt P29276+P30543) (assay: Binding affinity against Adenosine A2 receptor using [3H]NECA with 50 nM CPA in rat striatal brain membranes).
Assay type: cell membranes, Membrane

SMILES | Ki [nM]
O[C@@H]1[C@H](O)[C@@H](CCl)O[C@H]1n1cnc2c(NC3CCCC3)ncnc21 | 1870
O[C@@H]1[C@H](O)[C@@H](CCl)O[C@H]1n1cnc2c(N[C@@H]3C[C@@H]4CC[C@H]3C4)ncnc21 | 3000
O[C@@H]1[C@H](O)[C@@H](CCl)O[C@H]1n1cnc2c(N[C@H]3C[C@H]4CCC3C4)ncnc21 | 3900
O[C@@H]1[C@H](O)[C@@H](CCl)O[C@H]1n1cnc2c(NC3C[C@H]4CCC3C4)ncnc21 (some centres undefined) | 2100
